Earlier results on one molecule are cited in patent US7902187B2, “6-substituted 2-(benzimidazolyl)purine and purinone derivatives for immunosuppression” (Wyeth LLC, priority 2006, dated 2011).

Read-outs that look alike come from different tables or passages of the source.

The conditions of series [1]: primate model of kidney transplantation; cited from earlier work.
The conditions of series [2]: murine model of heart transplantation; cited from earlier work.

Regarding `C[C@@H]1CCN(C(=O)CC#N)C[C@@H]1N(C)c1ncnc2[nH]ccc12` [CP-690,550], the animal survival entry in series [1] and in series [2] was “prolong animal survival” in each case.
